Laboratory results reported in patent US11052151B2, “Diagnosis and treatment of autism spectrum disorder” (California Institute of Technology, priority 2012, dated 2021).
Each block holds one molecule with its values, some of them ahead of it.

How the values were obtained:
naïve wild-type mice [1] = experiment: 4EPS sufficiency experiment: open field exploration; format: in vivo
Procedure: The open field test is widely used to measure anxiety-like and locomotor behavior in rodents. Mice were placed in 50×50 cm white Plexiglas boxes for 10 minutes. An overhead video camera recorded the session, and Ethovision software (Noldus) was used to analyze the distance traveled, and the number of entries and duration of time spent in the center arena (central 17 cm square).
(§1) Wildtype mice were injected i.p. with saline or 30 mg/kg 4EPS potassium salt daily from 3 to 6 weeks of age. A dose-response curve was generated by measuring serum 4EPS levels at various times after i.p. injection of 30 mg/kg 4EPS (FIG. 15C). Mice were behaviorally tested as described above from 6 to 9 weeks of age.

naïve wild-type mice [2] = experiment: 4EPS sufficiency experiment: marble burying; format: in vivo; details: 4EPS-treated versus saline-treated mice
Procedure: Marble burying is an elicited repetitive behavior in rodents analogous to those observed in autistic individuals (Silverman et al., 2010b). This test was conducted and analyzed according to methods described in Thomas et al., 2009 and Malkova et al., 2012. Mice were habituated for 10 minutes to a novel testing cage containing a 4 cm layer of chipped cedar wood bedding and then transferred to a new housing cage. 18 glass marbles (15 mm diameter) were aligned equidistantly 6×3 in the testing cage. Mice were returned to the testing cage and the number of marbles buried in 10 minutes was recorded.
as §1

[3] = Serum 4EPS after i.p. injection; format: in vivo; details: single i.p. injection of 30 mg/kg potassium 4EPS, adult wild-type mice
Procedure: Authentic 4EPS and serum samples were analyzed by LC/MS using an Agilent […] HPLC system equipped with a photodiode array detector and interfaced to a model G1946C single quadrupole […] mass spectrometer. HPLC separations were obtained at 25° C. using an Agilent Zorbax XDB-C18 column (4.6 mm×50 mm×5 um particle size). The 4EPS ion was detected using selected ion monitoring for ions of m/z 200.9 and dwell time of 580 ms/ion, with the electrospray capillary set at 3 kV. […] For quantification of 4EPS in mouse sera, a dose-response curve was constructed by plotting the total ion count peak area for known concentrations of authentic potassium 4EPS against the analyte concentration (R^2=0.9998; FIG. 15B). Mouse serum samples were diluted four-fold with acetonitrile and centrifuged at 10,000 g at 4° C. for 3 minutes. 10 ul of supernatant was injected directly into the HPLC system.
as §1

naïve wild-type mice [4] = experiment: 4EPS sufficiency experiment: pre-pulse inhibition and startle; format: in vivo; details: 30 mg/kg i.p. daily
Procedure: PPI tests are used as a measure of sensorimotor gating and were conducted and analyzed according to the procedure described in Geyer and Swerdlow, 2001 and Smith et al., 2007. Briefly, mice were acclimated to the testing chambers of the SR-LAB startle response system (San Diego Instruments) for 5 minutes, presented with six 120 db pulses of white noise (startle stimulus) and then subjected to 14 randomized blocks of either no startle, startle stimulus only, 5 db prepulse with startle or 15 db prepulse with startle. The startle response was recorded by a piezo-electric sensor, and the percent PPI is defined as: [((startle stimulus only—5 or 15 db prepulse with startle)/startle stimulus only)*100].
as §1

naïve wild-type mice [5] = experiment: 4EPS sufficiency experiment: ultrasonic vocalizations; format: in vivo; details: 4EPS-treated versus saline-treated mice
Procedure: Male mice produce USVs in response to female mice as an important form of communication (Portfors, 2007). Adult male USV production in response to novel female exposure was measured according to methods described in Grimsley et al., 2011; Scattoni et al., 2011; and Silverman et al., 2010a. Adult males were single-housed one week before testing and exposed for 20 minutes to an unfamiliar adult female mouse each day starting four days prior to testing in order to provide a standardized history of sexual experience and to adjust for differences in social dominance. On testing day, mice were habituated to a novel cage for 10 minutes before exposure to a novel age-matched female. USVs were recorded for 3 minutes using the UltraSoundGate microphone and audio system (Avisoft Bioacoustics). Recordings were analyzed using Avisoft's SASLab Pro software after fast Fourier transformation at 512 FFT-length and detection by a threshold-based algorithm with 5 ms hold time. Data presented reflect duration and number of calls produced in the 3 minute session.
as §1

[6] = 4EPS sufficiency experiment: body weight; format: in vivo; details: 4EPS- versus control-treated mice
Procedure: as §1

CNTNAP2 knockout mice = details: cited from earlier work
ASD individuals = details: cited from earlier work
claudin 8 and claudin 15 [7] = experiment: IL-6 oral gavage, colon claudin expression; parameters: species or system mice; details: in vivo
Procedure: (§2) For in vivo assays, adult mice were gavaged with 5 ug carrier-free recombinant mouse IL-6 (eBioscience) in 1.5% sodium bicarbonate. At 4 hours post-gavage, 1 cm regions of distal, medial and proximal colon were dissected, washed in HBSS and processed for qRT-PCR, as described above. For in vitro assays, adult mice were sacrificed and 1 cm regions of distal, medial and proximal colon were dissected, washed and bisected for colon culture with 0-80 ng/ml IL-6 in complete RPMI media. After 4 hours of culture, colon pieces were harvested and processed for qRT-PCR, as described above.

claudin 8 and claudin 15 [8] = experiment: In vitro colon culture with IL-6, claudin expression; format: cell-based, mice; details: in vitro colon organ cultures
Procedure: as §2

[9] = 30 mg/kg i.p. daily, relative to vehicle-treated controls

distance traveled in the open field (naïve wild-type mice [1]; [9]): comparable distances
time in the center arena (naïve wild-type mice [1]; [9]): less time
number of entries into the center of the field (naïve wild-type mice [1]; 30 mg/kg i.p. daily, versus vehicle-treated mice): no difference
marble burying (naïve wild-type mice [2]): no significant differences
serum 4EPS [3]: Time-dependent increases
PPI (naïve wild-type mice [4]; 5 db or 15 db pre-pulse): no significant alterations
intensity of startle in response to the unconditioned primary stimulus (naïve wild-type mice [4]; 120 db pulse): increased intensity of startle
USV behavior (naïve wild-type mice [5]): no significant differences
Molecule: CCc1ccc(OS(=O)(=O)[O-])cc1.[K+] [4-ethylphenylsulfate]
anxiety-like behavior (naïve wild-type mice [1]; 30 mg/kg i.p. daily from 3 to 6 weeks of age): sufficient to induce anxiety-like behavior
weight [6]: no difference

Molecule: Cc1nc2n(c(=O)c1CCN1CCC(c3noc4cc(F)ccc34)CC1)CCCC2 [risperidone]
social behavior (CNTNAP2 knockout mice): inability to improve social behavior
social behavior (ASD individuals): inability to improve social behavior

B1: recombinant IL-6: carrier-free recombinant mouse IL-6 (eBioscience) (protein, UniProt P08505 25-211, looked up)
Interleukin-6: FPTSQVRRGDFTEDTTPNRPVYTTSQVGGLITHVLWEIVEMRKELCNGNSDCMNNDDALAENNLKLPEIQRNDGCYQTGYNQEICLLKISSGLLEYHSYLEYMKNNLKDNKKDKARVLQRDTETLIHIFNQEVKDLHKIVLPTPISNALLTDKLESQKEWLRTKTIQFILKSLEEFLKVTLRSTRQT
colon levels of claudin 8 and claudin 15 (claudin 8 and claudin 15 [7]): can modulate
colon levels of claudin 8 and claudin 15 (claudin 8 and claudin 15 [8]): can modulate
